Results on nine compounds are retold here after patent US20210246455A1, “MULTIPLEX ASSAY” (priority 2017, published 2021).

For assay [1], the system named is 53BP1 foci (DNA double strand breaks) in U2OS^A:Tox^DUPR reporter cells. The experiment in a line: 53BP1-mCerulean foci per nuclei in U2OS^A:Tox^DUPR reporter cells. In kind it is cell-based, human. The conditions noted are these: for number of 53BP1 foci per nuclei: exposed for 8 hr, compared to DMSO/vehicle. How it is done:
U2OS acceptor cells were co-transfected a construct containing the recombinase B×b1 and a mutlicistronic Tox reporter (named U2OS^A:Tox^DUPR) carrying three fluorescently labeled proteins: 53BP1-mCerulean that binds to DNA double strand breaks, H2B-mCherry and XBP1Δ-Venus which is a UPR stress related sensor. […] NCS inhibits DNA synthesis, G2 cycle arrest, apoptosis. […] Cells were plated in glass bottom well 384 well plates. To evaluate the specificity of the reporter, together with DNA inducers, three other compounds were used as controls. Thapsigargin, which induced UPR-related stress by inhibiting calcium uptake into ER (Ca^2+ is chaperone cofactor so protein folding is inhibited), tunicamycin that is also involved in UPR-related stress by inhibiting glycosylation of newly synthesized proteins, and aphidicolin which inhibits DNA replication in eukaryotes. All compounds were tested in tetraplicates in four ten-fold serial dilutions with data collection 8 hour after compound addition. Images were acquired in a Nikon Ti-E inverted Microscope equipped with motorized stage with autofocus and OkoLab stage top environmental control chamber (supplied with CO2 and temperature controlled for live cell imaging) (FIG. 11A).
The number of 53BP1-mCerulean was used as a metric for double strand breaks and DNA damage. For each assay, the images were analyzed using the open source software CellProfiler for quantification of the number of foci per nuclei and the data generated was further processed to determine compound EC50S.
Image analysis was conducted using the open source software CellProfiler. After importing the images, nuclei were identified from the H2B-mCherry images as primary objects, followed by enhancement of mCerulean structures, and detection of these enhanced structures as objects. The nuclei and the foci are related and the number of children (foci) per nuclei is counted. Data from CellProfiler was exported to Python programming language for further computation.
Using Python, the data was grouped by well and the average number of foci/nuclei determined. The wells that corresponded to the same conditions were grouped. All the data was exported to GraphPad Prism 7.0 software to generate plots. A non-linear regression was used to fit the data and to calculate the concentration where we observe 50% activity of the enhancer (EC50S) (FIG. 11B)

Assay [2] deals with Ras-MAPK pathway in HEK293 multicolor stable cell line expressing KRas(G12C), C-Raf, Mek and Erk reporters. Put plainly: Live-cell imaging of 4-color MAPK reporter cell line (reporter localization). In kind it is cell-based, human. The conditions noted are these: for CRaf localization / Erk localization / KRas localization: treated for four or nine hours, relative to control. How it is done:
The two-color stable cell lines were plated in 96 well glass-bottom plates overnight and treated with doxycycline at 1 μg/m1 to induce fluorescent reporter expression. Cells were treated with different compounds for four or nine hours. Cells were imaged with an epifluorescence Nikon™microscope with an OKOLab™ incubator system and images were acquired using a Plan Fluor™40× objective and NIS-Elements® software (Nikon™). An analogous procedure, using N-terminal tagged KRas(G12C), CRaf, Mek and Erk cloned into the multicistronic construct, was used to generate monoclonal, inducible 4-color cell lines with approximately balanced reporter construct expression level (FIG. 4 and FIG. 5, control)
The 4-color lines were used to visualize the MAPK pathway in live cells. HEK293 multicolor stable cell line expressing KRas(G12C), C-Raf, Mek and Erk reporters show correct localization of the 4 proteins at the plasma membrane, plasma membrane and cytoplasm, cytoplasm, nucleus, respectively (FIG. 5). Monitoring of cells under the microscope allowed visualization of the response to Ras-MAPK pathway inhibitors. To monitor response to inhibitors, after protein induction cell were treated with: GDC-0879, FR180204, lovastatin and PD0325901 for four or nine hours.

Assay [3] deals with MAPK pathway activation (mCherry-Erk nuclear localization) in U2OS MAPK R20 cells expressing K-Ras(G12C). Put plainly: MAPK reporter assay, nuclear versus cytoplasmic mCherry-Erk, U2OS MAPK R20. Conditions: Homo sapiens, read-out: IC50 (inhibition of nuclear localization of mCherry-Erk). Type of assay: cell-based. Here is the method: (§1) Three MAPK reporter cell lines were used to visualize the MAPK pathway in live cells and to analyze dose responses of MAPK inhibitors. U2OS MAPK R19, R20 and R21 multicolor stable cell line expressing mCerulean-CRaf, untagged Mek, mCherry-Erk and Venus-KRas (wt, G12C and G12D, respectively) were plated in glass bottom well 96 well plates. Twenty-four hours after plating cells were treated with doxycycline at 1 μg/ml for 5 h to induce fluorescent reporter expression. Monitoring of cells under the microscope allowed visualization of the response to Ras-MAPK pathway inhibitors. Two inhibitors, Trametinib an inhibitor of Mekl and […], inhibitor of Mek1/2 were used in the assay. […]
(§2) For each assay, the images were analyzed using CellProfiler (open source software for image analysis, Kamensty, L. et al., Bioinformatics (2011)) for quantification of the ratio of nuclear versus cytoplasmic Erk fluorescence intensity and the data generated was further processed to determine compound IC50S.
(§3) Image analysis used the open source software CellProfiler. […] The nuclear area of each cell was subtracted from the cytoplasm area to give the final cytoplasm mask. mCherry intensity for the nucleus and the cytoplasm of each cell was calculated from the original mCherry-Erk image and the nuclear to cytoplasm ratio of mCherry intensity was calculated per cell and exported as a HDFS file for analysis. […]

The test system of assay [4] is MAPK signaling in cells expressing K-Ras(wt), K-Ras(G12C) and K-Ras(G12D). Put plainly: Imaging of mCherry-Erk localization in U2OS^A-Tet MAPK R19, R20 and R21 reporter cell lines. Type of assay: cell-based, human. Conditions: exposed for 1 hr, compared to DMSO treated cells. Here is the method:
MAPK pathway inhibitors were tested for their ability to inhibit nuclear localization of mCherry-tagged ERK in three different cell lines expressing K-Ras wild type, K-Ras G12C or K-Ras G12D. To quantify these images we calculated the ratio of nuclear to cytoplasmic ERK in single cells for four images per sample and plotted the resulting values as a histogram.
as §1, §2

Assay [5] deals with MAPK pathway activation (mCherry-Erk nuclear localization) in U2OS MAPK R19 cells expressing K-Ras(wt). The experiment in a line: MAPK reporter assay, nuclear versus cytoplasmic mCherry-Erk, U2OS MAPK R19. Type of assay: cell-based. The conditions noted are these: Homo sapiens, read-out: IC50 (inhibition of nuclear localization of mCherry-Erk). Here is the method:
as §1, §2, §3

The subject of assay [6] is MAPK pathway activation (mCherry-Erk nuclear localization) in U2OS MAPK R21 cells expressing K-Ras(G12D). Put plainly: MAPK reporter assay, nuclear versus cytoplasmic mCherry-Erk, U2OS MAPK R21. Type of assay: cell-based. Conditions: Homo sapiens, read-out: IC50 (inhibition of nuclear localization of mCherry-Erk). Here is the method:
as §1, §2, §3

The test system of assay [7] is 53BP1 foci in Tox^DUPR reporter cells pooled with Tox^ORG reporter cells. Put plainly: Pooled assay, U2OS^A Tox^ORG and Tox^DUPR reporter cells mixed 1:1, 53BP1 foci per nuclei. Type of assay: cell-based, human. How it is done:
U2OS^A:Tox^DUPR and U2OS^A:Tox^ORG were combined in a pooled assay with an aggregate of […] biosensors and phenotypic readouts (MTS-Venus, H2B-TagBFP, mCherry-LC3, 53BP1-cerulean, XBP1-Venus and H2B-mCherry) where DNA is differently labeled in each of the two reporter cell lines (FIG. 13).
The two U2OS^A Tox^ORG and Tox^DUPR reporter cell lines were mixed 1:1 and plated in 384 well plates 24 h before compound addition. […] NCS inhibits DNA synthesis, G2 cycle arrest, apoptosis. Both compounds are inducers of DNA double strand breaks and consequently increase the number of 53BP1 nuclear foci. Eight hours post compound addition, images were acquired in a Nikon Ti-E inverted Microscope equipped with motorized stage with autofocus and OkoLab stage top environmental control chamber (supplied with CO2 and temperature controlled for live cell imaging) (FIG. 14).

“Also recorded” adds a separate entry of the source. Like-named read-outs stand apart in the source and are kept apart here.

In the case of `COc1cc([C@@H]2c3cc4c(cc3[C@@H](O[C@@H]3O[C@@H]5CO[C@@H](C)O[C@H]5[C@H](O)[C@H]3O)[C@H]3COC(=O)[C@H]23)OCO4)cc(OC)c1O` [Etoposide], the EC50 in assay [1] (Homo sapiens, 8 hour after compound addition, read-out: EC50 (number of 53BP1 foci/nuclei)) is 161 nM.

For `Nc1[nH]nc2nnc(-c3c(-c4ccccc4)nn4ccccc34)cc12` [FR180204], the CRaf localization entry in assay [2] was “moderate increase of CRaf levels at the plasma membrane”.

`CC[C@H](C)C(=O)O[C@H]1C[C@@H](C)C=C2C=C[C@H](C)[C@H](CC[C@@H]3C[C@@H](O)CC(=O)O3)[C@H]21` [Lovastatin]: the “displacement of KRas from the cell membrane” value in assay [2] (***p<0.0001) was “significant displacement of KRas from the cell membrane”. In assay [2], the CRaf localization result was “C-Raf is not enriched at the membrane”, the Erk localization result is recorded as “changes its localization to the cytoplasm” and the KRas localization entry is “absence of KRas at the membrane”.

Consider `O=C(NOC[C@H](O)CO)c1ccc(F)c(F)c1Nc1ccc(I)cc1F` [PD 0329501], for which the concentration for half-maximal inhibition (IC50) in assay [3] (1 h) was found to be 13 nM. In assay [2], the CRaf localization entry is “none of Mek upstream proteins (KRas and C-Raf) showed alteration in localization”; the Erk localization entry is “redistribution of the downstream effector, Erk, from the nucleus to the cytoplasm”; the KRas localization entry is “none of Mek upstream proteins (KRas and C-Raf) showed alteration in localization”. Also, the mCherry-Erk localization entry in assay [4] was “increase of mCherry-Erk at the cytoplasm”. Further, the IC50 in assay [5] (1 h) worked out at 9 nM. Moreover, the IC50 in assay [6] (1 h) turned out to be 76 nM.

As to `CC(=O)Nc1cccc(-n2c(=O)n(C3CC3)c(=O)c3c(Nc4ccc(I)cc4F)n(C)c(=O)c(C)c32)c1` [Trametinib], the half-inhibitory concentration (IC50) amounted to 55 nM in assay [3] (cells expressing K-Ras(G12C), 1 hour after compound addition); 9 nM in assay [5] (cells expressing K-Ras(wt), 1 hour after compound addition); 28 nM in assay [6] (cells expressing K-Ras(G12D), 1 hour after compound addition).

On to `C[C@@]1(CO)[C@H](O)CC[C@@]2(C)[C@H]1CC[C@H]1C[C@@H]3C[C@@]12CC[C@]3(O)CO` [aphidicolin], for which the “number of 53BP1 foci per nuclei” value in assay [1] is reported as “do not show any effect in the number of 53BP1 foci”.

As for `C/C=C(/C)C(=O)O[C@H]1C(C)=C2[C@H]([C@@H]1OC(=O)CCCCCCC)[C@@](C)(OC(C)=O)C[C@H](OC(=O)CCC)[C@@]1(O)[C@H]2OC(=O)[C@@]1(C)O` [thapsigargin, Thapsigargin], the “number of 53BP1 foci per nuclei” value in assay [1] is “do not show any effect in the number of 53BP1 foci”.

On to neocarzinostatin [NCS], for which the “number of 53BP1 foci per nuclei” value in assay [7] (pooled Tox^ORG and Tox^DUPR cells, 8 hr, compared to vehicle) was “increase in the number of foci/nuclei specifically in Tox^DUPR reporter cells; also recorded: increase in the number of foci per nuclei”; in assay [1] it was “increase in the number of foci per nuclei”. The “EC50 (number of 53BP1 foci/nuclei)” value in assay [7] (pooled with other reporter cell lines (FIG. 14), eight hours post compound addition) came out at 376 µg/mL; in assay [1] (8 hour after compound addition), 0.257 µg/mL; in assay [1] (reporter cells assayed by itself (FIG. 11B)), 257 µg/mL.

On to tunicamycin, for which the “number of 53BP1 foci per nuclei” value in assay [1] is “do not show any effect in the number of 53BP1 foci”.
